IC50 data for four compounds are collected here from article PMC10745721, “Chemical Comparison and Identification of Xanthine Oxidase Inhibitors of Dioscoreae Hypoglaucae Rhizoma and Dioscoreae Spongiosae Rhizoma by Chemometric Analysis and Spectrum–Effect Relationship” (Molecules, 2023).

This test concerns the target xanthine oxidase (Bos taurus, UniProt P80457). The test is described as follows: xanthine oxidase inhibitory assay in vitro (absorbance at 295 nm, uric acid from xanthine). The note with it: pure compounds, five concentrations each; read-out: IC50 of xanthine oxidase inhibition. The format is biochemical.

As a reminder, the IC50 is the concentration that gives 50% inhibition.

Molecules are shown by their SMILES.

Chain of xanthine oxidase (P80457 whole entry): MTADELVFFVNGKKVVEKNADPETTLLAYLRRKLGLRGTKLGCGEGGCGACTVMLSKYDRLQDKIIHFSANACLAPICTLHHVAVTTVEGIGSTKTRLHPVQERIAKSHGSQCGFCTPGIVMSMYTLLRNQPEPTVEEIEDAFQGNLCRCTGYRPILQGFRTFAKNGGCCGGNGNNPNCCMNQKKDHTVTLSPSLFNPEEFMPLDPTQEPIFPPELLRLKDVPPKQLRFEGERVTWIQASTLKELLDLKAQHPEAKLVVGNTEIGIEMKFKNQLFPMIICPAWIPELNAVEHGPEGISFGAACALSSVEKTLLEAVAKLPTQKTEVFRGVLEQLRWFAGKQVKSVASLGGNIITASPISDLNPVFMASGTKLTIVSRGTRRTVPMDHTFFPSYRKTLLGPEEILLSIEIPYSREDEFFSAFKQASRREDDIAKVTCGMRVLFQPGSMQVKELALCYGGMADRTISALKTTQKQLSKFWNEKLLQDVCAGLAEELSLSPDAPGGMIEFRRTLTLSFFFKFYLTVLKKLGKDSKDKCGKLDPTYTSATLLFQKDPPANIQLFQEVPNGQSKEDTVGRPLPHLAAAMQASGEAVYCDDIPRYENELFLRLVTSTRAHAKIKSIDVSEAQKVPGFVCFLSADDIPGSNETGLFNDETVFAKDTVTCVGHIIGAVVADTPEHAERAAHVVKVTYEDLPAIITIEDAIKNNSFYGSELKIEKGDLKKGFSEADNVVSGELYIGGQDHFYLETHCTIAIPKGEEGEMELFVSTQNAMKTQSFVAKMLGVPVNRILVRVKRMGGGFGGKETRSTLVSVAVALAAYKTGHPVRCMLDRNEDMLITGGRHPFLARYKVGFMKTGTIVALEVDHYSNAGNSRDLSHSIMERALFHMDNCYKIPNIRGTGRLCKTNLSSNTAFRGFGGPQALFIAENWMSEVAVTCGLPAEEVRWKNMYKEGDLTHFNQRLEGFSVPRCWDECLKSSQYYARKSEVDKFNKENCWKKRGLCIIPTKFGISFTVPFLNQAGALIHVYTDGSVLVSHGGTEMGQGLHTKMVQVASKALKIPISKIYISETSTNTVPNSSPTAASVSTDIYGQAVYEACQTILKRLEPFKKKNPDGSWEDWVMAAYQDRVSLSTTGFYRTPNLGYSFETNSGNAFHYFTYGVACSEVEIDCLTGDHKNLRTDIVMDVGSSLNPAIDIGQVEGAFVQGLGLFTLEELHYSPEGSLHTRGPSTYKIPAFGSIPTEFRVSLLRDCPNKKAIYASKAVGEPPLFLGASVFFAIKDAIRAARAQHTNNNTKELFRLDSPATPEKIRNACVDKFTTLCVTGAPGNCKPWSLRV
Protocol: For xanthine oxidase inhibition assay, 600 μL of supernatant was concentrated in a Termovap Sample Concentrator (Hangzhou Miulab Instruments Co., Ltd., Hangzhou, China) at 30 °C until elimination of solvent. The residue was redissolved in 600 μL PBS.
The xanthine oxidase inhibitory activities of DH and DS samples were determined by xanthine oxidase inhibitory activity assay in vitro [25], which was based on the increase in absorbance at 295 nm due to the production of uric acid from xanthine. In brief, 50 µL of DH or DS samples, 30 µL of phosphate buffer (70 Mm, pH 7.5), and 40 µL of xanthine oxidase (0.05 U/mL) were added into a 96-well plate. After preincubation at 25 °C for 8 min, 60 µL of xanthine (300 µM) was added. After incubation at 25 °C for 15 min, the reaction was stopped by adding 20 µL of HCl (1.0 M). The absorbance of the mixture solution was recorded at 295 nm by a microplate reader.
The control sample was prepared by adding PBS instead of tested sample. The background sample was prepared by replacing tested sample with the same volume of PBS. The blank sample was prepared by adding PBS instead of xanthine oxidase solution. All experiments were repeated three times. The inhibition ratio of xanthine oxidase was calculated as follows:Inhibition ratio (%) = [1 − (test sample-background sample/control sample-blank sample)] × 100
DH and DS samples were prepared in a series of concentrations. The xanthine oxidase inhibitory activities of DH and DS samples were evaluated by IC50 values (the concentration of the sample inhibited 50% the activity of the xanthine oxidase, and the IC50 values were calculated by a logarithmic regression curve. As DH and DS samples were mixtures of multiple constituents, the molar concentrations were uncertain. Thus, the IC50 values of anti-xanthine oxidase activities of DH and DS samples were expressed as mg/mL raw drug equivalents.

For `CO[C@]1(CC[C@@H](C)CO[C@@H]2O[C@H](CO)[C@@H](O)[C@H](O)[C@H]2O)O[C@H]2C[C@H]3[C@@H]4CC=C5C[C@@H](O[C@@H]6O[C@H](CO)[C@@H](O[C@@H]7O[C@@H](C)[C@H](O)[C@@H](O)[C@H]7O)[C@H](O)[C@H]6O[C@@H]6O[C@@H](C)[C@H](O)[C@@H](O)[C@H]6O)CC[C@]5(C)[C@H]4CC[C@]3(C)[C@H]2[C@@H]1C` [methyl protodioscin], the IC50 is 220 µM.

In the case of `CC(CCC1(O)OC2CC3C4CC=C5CC(OC6OC(CO)C(OC7OC(C)C(O)C(O)C7O)C(O)C6OC6OC(C)C(O)C(O)C6O)CCC5(C)C4CCC3(C)C2C1C)COC1OC(CO)C(O)C(O)C1O` (stereo not shown) [protodioscin], the IC50 was found to be 200 µM.

Take `CC(CCC1(O)OC2CC3C4CC=C5CC(OC6OC(CO)C(O)C(OC7OC(CO)C(O)C(O)C7O)C6OC6OC(C)C(O)C(O)C6O)CCC5(C)C4CCC3(C)C2C1C)COC1OC(CO)C(O)C(O)C1O` (stereo not shown) [protogracillin]: the IC50 is 190 µM.

Consider `CC1=C(CC[C@@H](C)CO[C@@H]2O[C@H](CO)[C@@H](O)[C@H](O)[C@H]2O)OC2CC3C4CC=C5CC(O[C@@H]6O[C@H](CO)[C@@H](O)[C@H](O[C@@H]7O[C@H](CO)[C@@H](O)[C@H](O)[C@H]7O)[C@H]6O[C@@H]6O[C@@H](C)[C@H](O)[C@@H](O)[C@H]6O)CC[C@]5(C)C4CC[C@]3(C)C12` (stereo partly shown) [pseudoprogracillin], for which the IC50 was determined as 250 µM.
